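Compound exposure: 48 hours, 5 concentrations, 96-well plates. At the TGI there is no net growth.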
Assays:
Assay in all cases: NCI tumour cell line growth inhibition, 48 h
A549 NSCLC = system: A549 NSCLC
CAKI-1 renal = system: CAKI-1 renal
CCRF-CEM leukemia = system: CCRF-CEM leukemia
COLO 205 colon = system: COLO 205 colon
DLD-1 colon = system: DLD-1 colon
DMS 114 small cell lung = system: DMS 114 small cell lung
DMS 273 small cell lung = system: DMS 273 small cell lung
EKVX NSCLC = system: EKVX NSCLC
HCC-2998 colon = system: HCC-2998 colon
HCT-116 colon = system: HCT-116 colon
HCT-15 colon = system: HCT-15 colon
HL-60(TB) leukemia = system: HL-60(TB) leukemia
HOP-18 NSCLC = system: HOP-18 NSCLC
IGROV1 ovarian = system: IGROV1 ovarian
K-562 leukemia = system: K-562 leukemia
KM12 colon = system: KM12 colon
KM20L2 colon = system: KM20L2 colon
LOX IMVI melanoma = system: LOX IMVI melanoma
LXFL 529 NSCLC = system: LXFL 529 NSCLC
M14 melanoma = system: M14 melanoma
M19-MEL melanoma = system: M19-MEL melanoma
MALME-3M melanoma = system: MALME-3M melanoma
MOLT-4 leukemia = system: MOLT-4 leukemia
NCI-H226 lung = system: NCI-H226 lung
NCI-H460 lung = system: NCI-H460 lung
OVCAR-4 ovarian = system: OVCAR-4 ovarian
OVCAR-5 ovarian = system: OVCAR-5 ovarian
OVCAR-8 ovarian = system: OVCAR-8 ovarian
RPMI-8226 leukemia = system: RPMI-8226 leukemia
RXF 393 renal = system: RXF 393 renal
SF-268 CNS = system: SF-268 CNS
SF-295 CNS = system: SF-295 CNS
SF-539 CNS = system: SF-539 CNS
SK-MEL-2 melanoma = system: SK-MEL-2 melanoma
SK-MEL-28 melanoma = system: SK-MEL-28 melanoma
SK-MEL-5 melanoma = system: SK-MEL-5 melanoma
SK-OV-3 ovarian = system: SK-OV-3 ovarian
SN12C renal = system: SN12C renal
SNB-19 CNS = system: SNB-19 CNS
SNB-75 CNS = system: SNB-75 CNS
SNB-78 CNS = system: SNB-78 CNS
SR leukemia = system: SR leukemia
SW-620 colon = system: SW-620 colon
TK-10 renal = system: TK-10 renal
U251 CNS = system: U251 CNS
UACC-257 melanoma = system: UACC-257 melanoma
UO-31 renal = system: UO-31 renal
XF 498 CNS = system: XF 498 CNS
786-0 renal = system: 786-0 renal
A498 renal = system: A498 renal
ACHN renal = system: ACHN renal
HOP-62 NSCLC = system: HOP-62 NSCLC
HOP-92 NSCLC = system: HOP-92 NSCLC
HT29 colon = system: HT29 colon
NCI-H23 lung = system: NCI-H23 lung
NCI-H522 lung = system: NCI-H522 lung
UACC-62 melanoma = system: UACC-62 melanoma
OVCAR-3 ovarian = system: OVCAR-3 ovarian

Measured: TGI

Cn1c(=O)[nH]c2c(c1=O)C(=O)CN2
not listed: 786-0 renal | A498 renal | ACHN renal | HOP-62 NSCLC | HOP-92 NSCLC | HT29 colon | NCI-H23 lung | NCI-H522 lung | UACC-62 melanoma | OVCAR-3 ovarian
> 100 µM: all other assays above

C=C1C(C(=O)O)C1C(=O)O (stereo not given)
not listed: COLO 205 colon | LXFL 529 NSCLC | OVCAR-3 ovarian
> 100 µM: all other assays above

CCOC(=O)c1ccn2c(c1)c(C#N)c1nc3ccccc3nc12
57.6 µM: SNB-78 CNS
50.6 µM: MOLT-4 leukemia
59.8 µM: IGROV1 ovarian
93.3 µM: XF 498 CNS
68.4 µM: CCRF-CEM leukemia
25.7 µM: UACC-62 melanoma
not listed: HOP-18 NSCLC | NCI-H226 lung | RXF 393 renal | SF-295 CNS | HOP-92 NSCLC | HT29 colon
> 100 µM: all other assays above
